Experimental data from BindingDB's records for doi:10.1021/jm00121a012 (Takeda Chemical Industries, 1989).
pIC50: −log10 of the molar value.

Target: Platelet-activating factor receptor (Oryctolagus cuniculus)
Experiment: Inhibition of rabbit platelet aggregation induced by platelet activating factor (PAF)

| SMILES | pIC50 |
| --- | --- |
| CCCCCCCCCCCCCCCCCCNC(=O)OCC(COC(=O)N(Cc1cccc[n+]1C)C(C)=O)OC (stereo not drawn) | 6.70 |
| CCCCCCCCCCCCCCCCCCOCC(COC(=O)NCC[N+](C)(C)C)OC(C)=O (stereo not drawn) | 5.08 |
| CCCCCCCCCCCCCCCCCCNC(=O)OCC(COC(=O)N(CC[N+](C)(C)C)C(C)=O)OC (stereo not drawn) | 5.82 |
| CCCCCCCCCCCCCCCCCCNC(=O)OCC(COC(=O)N(CC[N+](C)(C)C)C(=O)CC)OC (stereo not drawn) | 5.25 |
| CCCCCCCCCCCCCCCCCCNC(=O)OCC(COC(=O)N(CC[N+](C)(C)C)C(=O)OC)OC (stereo not drawn) | 5.64 |
| CCCCCCCCCCCCCCCCCCNC(=O)OCC(COC(=O)N(CC[N+]1(C)CCOCC1)C(C)=O)OC (stereo not drawn) | 5.04 |
| CCCCCCCCCCCCCCCCCCNC(=O)OCC(COC(=O)NCC[N+](C)(C)C)OC (stereo not drawn) | 4.85 |
| CCCCCCCCCCCCCCCCCCNC(=O)OCC(COC(=O)N(CC[N+]1(C)CCCC1)C(C)=O)OC (stereo not drawn) | 5.96 |
| CCCCCCCCCCCCCCCCCCNC(=O)OCC(COC(=O)N(Cc1cccc[n+]1CCC)C(C)=O)OC (stereo not drawn) | 7.03 |
| CCCCCCCCCCCCCCCCCCNC(=O)OCC(COC(=O)N(Cc1csc[n+]1CC)C(C)=O)OC (stereo not drawn) | 7.04 |
| CCCCCCCCCCCCCCCCCCOCC(COC(=O)N(CC[N+](C)(C)C)C(C)=O)OC(C)=O (stereo not drawn) | 6.06 |
| CCCCCCCCCCCCCCCCCCNC(=O)OCC(COC(=O)N(CC[N+](C)(C)C)C(=O)N(C)C)OC (stereo not drawn) | 5.24 |
| CCCCCCCCCCCCCCCCCCNC(=O)OCC(COC(=O)N(CCC[N+](C)(C)C)C(C)=O)OC (stereo not drawn) | 5.07 |
| CCCCCCCCCCCCCCCCCCNC(=O)OCC(COC(=O)N(CC[N+](C)(C)C)C(=O)N1CCCC1)OC (stereo not drawn) | 5.07 |
| CCCCCCCCCCCCCCCCCCNC(=O)OCC(COC(=O)N(CC[N+](C)(C)C)C(=O)NCCC)OC (stereo not drawn) | < 4.52 |
| CCCCCCCCCCCCCCCCCCNC(=O)OCC(COC(=O)N(Cc1csc[n+]1C)C(C)=O)OC (stereo not drawn) | 7.00 |
| CCCCCCCCCCCCCCCCCCNC(=O)OCC(COC(=O)N(CC[N+](C)(C)C)C(=O)CCC)OC (stereo not drawn) | 5.11 |
| CCCCCCCCCCCCCCCCCCNC(=O)OCC(COC(=O)N(C)CC[N+](C)(C)C)OC (stereo not drawn) | 5.09 |
